According to ChEMBL document CHEMBL5038669, “Development of the First Covalent Monopolar Spindle Kinase 1 (MPS1/TTK) Inhibitor” (J Med Chem, 2022):

What was measured:
[1] = molecular target: Cyclin-G-associated kinase (Homo sapiens) (UniProt O14976); assay: Binding affinity to human GAK assessed as thermal stability by measuring melting temperature 10 uM by differential scanning fluorimetry
[2] = molecular target: T1, Serine/threonine-protein kinase 17B (Homo sapiens) (UniProt O94768); settings: dose 10.0 µM
T1 sequence (whole entry): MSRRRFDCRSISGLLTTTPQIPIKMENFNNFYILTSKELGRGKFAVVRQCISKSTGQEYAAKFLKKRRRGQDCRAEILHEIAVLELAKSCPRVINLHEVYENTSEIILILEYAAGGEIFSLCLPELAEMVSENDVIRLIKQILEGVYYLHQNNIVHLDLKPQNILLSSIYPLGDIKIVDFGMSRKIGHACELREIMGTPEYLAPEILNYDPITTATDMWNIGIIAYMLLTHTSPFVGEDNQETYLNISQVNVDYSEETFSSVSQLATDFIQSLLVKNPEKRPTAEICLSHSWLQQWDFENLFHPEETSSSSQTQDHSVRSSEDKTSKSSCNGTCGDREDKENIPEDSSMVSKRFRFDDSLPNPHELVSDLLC

[3] = molecular target: T2, Dual specificity protein kinase TTK (Homo sapiens, UniProt P33981); assay: Displacement of tracer K9 from NanoLuc-fused MPS1 (unknown origin) expressed in HEK293T cells measured after 2 hrs by NanoBRET assay; assay type: cell-based
T2 sequence (P33981 whole entry): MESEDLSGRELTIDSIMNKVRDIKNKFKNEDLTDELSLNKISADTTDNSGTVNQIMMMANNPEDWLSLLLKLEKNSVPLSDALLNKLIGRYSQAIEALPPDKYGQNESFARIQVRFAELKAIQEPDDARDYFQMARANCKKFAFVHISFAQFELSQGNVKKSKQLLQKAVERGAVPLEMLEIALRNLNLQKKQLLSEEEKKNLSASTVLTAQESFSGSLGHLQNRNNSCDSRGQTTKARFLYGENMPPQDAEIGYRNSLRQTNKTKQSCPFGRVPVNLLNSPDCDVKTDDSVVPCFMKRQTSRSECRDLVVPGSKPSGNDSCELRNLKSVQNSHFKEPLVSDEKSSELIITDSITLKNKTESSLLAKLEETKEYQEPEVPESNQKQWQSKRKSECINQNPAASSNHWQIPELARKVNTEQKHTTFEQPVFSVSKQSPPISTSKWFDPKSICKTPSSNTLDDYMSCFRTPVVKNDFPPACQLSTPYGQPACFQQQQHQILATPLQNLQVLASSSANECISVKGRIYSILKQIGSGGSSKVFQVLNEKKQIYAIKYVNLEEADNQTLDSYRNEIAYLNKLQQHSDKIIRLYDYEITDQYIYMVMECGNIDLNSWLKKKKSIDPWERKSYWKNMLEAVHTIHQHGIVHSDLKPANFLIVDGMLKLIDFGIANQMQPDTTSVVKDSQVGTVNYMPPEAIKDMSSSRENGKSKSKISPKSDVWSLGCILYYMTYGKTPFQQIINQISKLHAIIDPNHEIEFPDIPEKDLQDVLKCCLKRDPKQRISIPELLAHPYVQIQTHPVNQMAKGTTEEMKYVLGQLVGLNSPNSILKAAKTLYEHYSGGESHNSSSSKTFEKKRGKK

[4] = molecular target: T2, Dual specificity protein kinase TTK; assay: Inhibition of recombinant human full length N-terminal GST-fused MPS1 (1 to 857 residues) using histone H3 as substrate by TR-FRET assay

Chain of Cyclin-G-associated kinase (Homo sapiens) (O14976 whole entry): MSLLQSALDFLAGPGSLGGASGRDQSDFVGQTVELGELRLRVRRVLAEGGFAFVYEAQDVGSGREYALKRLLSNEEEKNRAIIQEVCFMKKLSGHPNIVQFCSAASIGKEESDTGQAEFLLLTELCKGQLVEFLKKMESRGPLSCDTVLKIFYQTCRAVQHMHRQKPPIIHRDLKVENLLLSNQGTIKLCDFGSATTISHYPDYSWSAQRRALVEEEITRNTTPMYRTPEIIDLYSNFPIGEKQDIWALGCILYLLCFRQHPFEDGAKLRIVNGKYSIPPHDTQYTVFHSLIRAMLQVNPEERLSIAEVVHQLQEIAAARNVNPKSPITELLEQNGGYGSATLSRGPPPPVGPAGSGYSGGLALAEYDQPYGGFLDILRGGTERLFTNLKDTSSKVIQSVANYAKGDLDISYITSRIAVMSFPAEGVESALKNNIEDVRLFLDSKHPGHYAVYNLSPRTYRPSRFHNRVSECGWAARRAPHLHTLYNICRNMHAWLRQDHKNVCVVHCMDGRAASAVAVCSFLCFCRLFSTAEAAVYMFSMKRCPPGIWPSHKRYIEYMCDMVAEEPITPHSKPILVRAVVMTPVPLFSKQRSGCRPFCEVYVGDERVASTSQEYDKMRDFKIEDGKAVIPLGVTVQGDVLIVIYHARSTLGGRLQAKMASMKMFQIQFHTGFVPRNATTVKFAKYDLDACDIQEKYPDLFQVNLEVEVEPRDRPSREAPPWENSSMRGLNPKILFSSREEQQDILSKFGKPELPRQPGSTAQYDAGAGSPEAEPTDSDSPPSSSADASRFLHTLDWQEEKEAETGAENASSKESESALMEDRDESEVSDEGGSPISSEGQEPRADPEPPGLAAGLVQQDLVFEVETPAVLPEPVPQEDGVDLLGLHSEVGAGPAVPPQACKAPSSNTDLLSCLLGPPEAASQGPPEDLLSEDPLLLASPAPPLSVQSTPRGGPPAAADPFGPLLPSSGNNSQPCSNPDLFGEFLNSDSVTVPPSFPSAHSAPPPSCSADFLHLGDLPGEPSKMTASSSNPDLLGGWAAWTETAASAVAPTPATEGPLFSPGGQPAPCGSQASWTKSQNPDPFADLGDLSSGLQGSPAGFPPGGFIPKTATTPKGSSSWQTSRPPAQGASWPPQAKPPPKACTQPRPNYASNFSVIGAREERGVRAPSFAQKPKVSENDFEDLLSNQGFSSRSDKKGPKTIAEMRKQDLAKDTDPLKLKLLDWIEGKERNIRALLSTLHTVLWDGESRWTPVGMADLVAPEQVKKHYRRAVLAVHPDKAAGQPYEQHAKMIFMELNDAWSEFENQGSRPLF

Row | SMILES | ΔTm [1] | ΔTm [2] | IC50 [3] | IC50 [4]
1 | CCc1cccc(CC)c1NC(=O)c1ccn2c1CCc1cnc(Nc3ccc(N4CCN(C)CC4)cc3OC)nc1-2 | 13.2 °C | 21.6 °C | – | –
2 | CCC(=O)Nc1cc(N2CCN(C)CC2)ccc1Nc1ncc2c(n1)-n1ccc(C(=O)Nc3c(CC)cccc3CC)c1CC2 | – | 17.4 °C | 32.7 nM | 9.06 nM
